Biological target: 3-phosphoinositide-dependent protein kinase 1 (Homo sapiens) (UniProt O15530)
Test: Inhibition of recombinant PDK1

- IC50: > 10 µM
Structure (SMILES): CCN1CCN(c2ccc(Nc3cc(N(C)C(=O)Nc4c(Cl)c(OC)cc(OC)c4Cl)ncn3)cc2)CC1
